Assay results published in patent publication US20260069582A1, “POLYMORPH OF GLP-1R AGONIST COMPOUND, PREPARATION METHOD THEREFOR, AND USE THEREOF” (MINDRANK THERAPEUTICS (SUZHOU) NEW DRUG RESEARCH AND …, priority 2022, published 2026).
Structures can show the parent of a compound that is named as a salt. Where two headings read alike, the source gives them in different places. One block for each compound: values may come before it.

Experiments:
[1] = Transformation of metastable crystal forms on drying or standing (XRPD); format: physicochemical
Description: After being stirred at room temperature for about 3 d, the mixture was filtered under vacuum. The resulting filter cake was metastable crystal form J of compound I. The product was analyzed and characterized by XRPD (FIG. 28).
The mixture was stirred at room temperature for 16 h and filtered. The resulting filter cake was metastable crystal form K of compound I. The product was analyzed and characterized by XRPD (FIG. 29).
The mixture was stirred at room temperature for about 3 d and filtered. The filter cake was dried at 50° C. for 16 h to give metastable crystal form L of compound I. The product was analyzed and characterized by XRPD (FIG. 30).
The mixture was stirred at 5° C. for about 1 d and filtered. The resulting filter cake was metastable crystal form M of compound I. The product was analyzed and characterized by XRPD (FIG. 31).
Crystal form C of compound I was heated to 80° C. at 10° C./min to give metastable crystal form N of compound I. The product was analyzed and characterized by XRPD (FIG. 32).

[2] = Solid state stability study (purity by HPLC and crystal form change); format: physicochemical; conditions: for Initial purity (%): before storage, HPLC
[3] = Drug absorption experiment in SD rats, intravenous administration; format: in vivo; conditions: rat, plasma, tail vein injection
Description: Blood samples were collected at different time points before and after administration and then separated to prepare plasma. The concentration of the drug in plasma was determined by liquid chromatography-tandem mass spectrometry, and pharmacokinetic parameters were calculated using a non-compartmental model.

[4] = Drug absorption experiment in SD rats, intragastric administration; format: in vivo; conditions: for absolute bioavailability: after dose correction, based on AUC0-t
Description: Blood samples were collected at different time points after administration and then separated to prepare plasma. The concentration of the drug in plasma was determined by liquid chromatography-tandem mass spectrometry, and pharmacokinetic parameters were calculated using a non-compartmental model.

[5] = Equilibrium solubility study in biological media; format: physicochemical; conditions: 37 °C, thermodynamic from solid, 37±2° C.
Description: In the tests, the solids were suspended in corresponding buffers to formulate suspensions (˜10 mg/mL), and the suspensions were mixed at 37±2° C. After 24 h, samples of the suspensions were taken. The supernatant was filtered, and the concentration was determined.

[6] = Hygroscopic behavior test by dynamic vapor sorption (DVS); format: physicochemical; conditions: 25° C.
From the text: The experimental method for characterizing an acid salt or a base salt of compound I by dynamic vapor sorption (DVS) was as follows: A small amount of a powder of a polymorph of compound I was taken and placed into a precise sample tray that matches the instrument. After the sample was loaded, the sample tray was sent into the instrument for analysis. In this patent, the instrument model used in the dynamic vapor sorption analysis was Intrinsic PLUS; the experimental parameter was set as follows: A constant temperature of 25° C. was set; the mass percent change rate per unit time (dm/dt)=0.02%/min was used as a criterion for determining that a balance is achieved; the program humidity change cycle was set as follows: The initial relative humidity was 0%, and the endpoint relative humidity was 90%.

[7] = 25° C./60% RH, 7 days (long-term storage)
[8] = 40° C./75% RH, 7 days (accelerated)
[9] = 60° C., RH<30%, 7 days (high-temperature)

SMILES: O=C(O)c1ccc2nc(CN3CCC(Oc4cccc(COc5ccc(Cl)cc5F)n4)CC3)n(C[C@@H]3CCO3)c2c1 [crystal form L, (S)-2-((4-((6-((4-chloro-2-fluorophenoxy)methyl)pyridin-2-yl)oxy)piperidin-1-yl)methyl)-1-(oxetan-2-ylmethyl)-1H-benzo[d]imidazole-6-carboxylic acid tromethamine salt (1:1)]
Crystal form transformation ([1]; dried under vacuum at room temperature for about 16 h): transformed to crystal form D
Crystal form transformation ([1]; let stand in an open flask at room temperature for about 16 h): transformed to crystal form D

SMILES: O=C(O)c1ccc2nc(CN3CCC(Oc4cccc(COc5ccc(Cl)cc5F)n4)CC3)n(C[C@@H]3CCO3)c2c1 [Free form of compound I, (S)-2-((4-((6-((4-chloro-2-fluorophenoxy)methyl)pyridin-2-yl)oxy)piperidin-1-yl)methyl)-1-(oxetan-2-ylmethyl)-1H-benzo[d]imidazole-6-carboxylic acid]
Purity (%) [2, 7]: 98.94%
Purity (%) [2, 8]: 95.86%
Purity (%) [2, 9]: 89.15%
Initial purity (%) [2]: 98.98%
AUC(0-t) ([3]; 1 mg/kg): 1280 ng·h/mL
Cmax ([3]; 1 mg/kg): 3200 ng/mL
half-life ([3]; 1 mg/kg): 3.89 h
half-life ([4]; SD, rat, plasma, po, 5 mg/kg): 2.84 h
AUC(0-t) ([4]; SD, rat, plasma, po, 5 mg/kg, read-out: AUC0-t): 1400 ng·h/mL
Cmax ([4]; SD, rat, plasma, po, 5 mg/kg, read-out: Cmax): 600 ng/mL
Tmax ([4]; SD, rat, plasma, po, 5 mg/kg, read-out: Tmax): 0.5 h
absolute bioavailability [4]: 21.8%

SMILES: O=C(O)c1ccc2nc(CN3CCC(Oc4cccc(COc5ccc(Cl)cc5F)n4)CC3)n(C[C@@H]3CCO3)c2c1 [Crystal form A of compound I, (S)-2-((4-((6-((4-chloro-2-fluorophenoxy)methyl)pyridin-2-yl)oxy)piperidin-1-yl)methyl)-1-(oxetan-2-ylmethyl)-1H-benzo[d]imidazole-6-carboxylic acid tromethamine salt (1:1)]
Purity (%) [2, 7]: 99.18%
Purity (%) [2, 8]: 99.17%
Purity (%) [2, 9]: 98.83%
Initial purity (%) [2]: 99.30%
solubility thermodynamic at 24 h ([5]; FaSSIF): 110 µg/mL
solubility thermodynamic at 24 h ([5]; FeSSIF): 450 µg/mL
solubility thermodynamic at 24 h ([5]; water, H2O): 440 µg/mL
Sample weight change at 80% RH (%) ([6]; DVS, 80% RH): 1.03%
Whether the crystal form is changed ([6]; after DVS, 0-90% RH): No
AUC(0-t) ([3]; 2 mg/kg): 2440 ng·h/mL
Cmax ([3]; 2 mg/kg): 7640 ng/mL
half-life ([3]; 2 mg/kg): 1.88 h
AUC(0-t) ([4]; 5 mg/kg): 2670 ng·h/mL
Cmax ([4]; 5 mg/kg): 847 ng/mL
Tmax ([4]; 5 mg/kg): 0.25 h
t1/2 ([4]; 5 mg/kg): 3.59 h
absolute bioavailability [4]: 43.7%

SMILES: O=C(O)c1ccc2nc(CN3CCC(Oc4cccc(COc5ccc(Cl)cc5F)n4)CC3)n(C[C@@H]3CCO3)c2c1 [crystal form N, (S)-2-((4-((6-((4-chloro-2-fluorophenoxy)methyl)pyridin-2-yl)oxy)piperidin-1-yl)methyl)-1-(oxetan-2-ylmethyl)-1H-benzo[d]imidazole-6-carboxylic acid tromethamine salt (1:1)]
Crystal form transformation ([1]; dried at 50° C. for 16 h): transformed to crystal form B

SMILES: O=C(O)c1ccc2nc(CN3CCC(Oc4cccc(COc5ccc(Cl)cc5F)n4)CC3)n(C[C@@H]3CCO3)c2c1 [Crystal form B of compound I, (S)-2-((4-((6-((4-chloro-2-fluorophenoxy)methyl)pyridin-2-yl)oxy)piperidin-1-yl)methyl)-1-(oxetan-2-ylmethyl)-1H-benzo[d]imidazole-6-carboxylic acid tromethamine salt (1:1)]
Purity (%) [2, 7]: 98.74%
Purity (%) [2, 8]: 98.73%
Purity (%) [2, 9]: 98.67%
Initial purity (%) [2]: 98.80%

Results, then the compound that gave them:

Purity (%) [2, 7]: 98.41%
Purity (%) [2, 8]: 98.47%
Purity (%) [2, 9]: 98.48%
Initial purity (%) [2]: 98.44%
SMILES: O=C(O)c1ccc2nc(CN3CCC(Oc4cccc(COc5ccc(Cl)cc5F)n4)CC3)n(C[C@@H]3CCO3)c2c1 [Crystal form I of compound I, (S)-2-((4-((6-((4-chloro-2-fluorophenoxy)methyl)pyridin-2-yl)oxy)piperidin-1-yl)methyl)-1-(oxetan-2-ylmethyl)-1H-benzo[d]imidazole-6-carboxylic acid tromethamine salt (1:1)]

Crystal form transformation ([1]; dried at 40° C. for 16 h): transformed to crystal form A
SMILES: O=C(O)c1ccc2nc(CN3CCC(Oc4cccc(COc5ccc(Cl)cc5F)n4)CC3)n(C[C@@H]3CCO3)c2c1 [crystal form J, (S)-2-((4-((6-((4-chloro-2-fluorophenoxy)methyl)pyridin-2-yl)oxy)piperidin-1-yl)methyl)-1-(oxetan-2-ylmethyl)-1H-benzo[d]imidazole-6-carboxylic acid tromethamine salt (1:1)]

Crystal form transformation ([1]; dried at 50° C. for 24 h): transformed to crystal form A
SMILES: O=C(O)c1ccc2nc(CN3CCC(Oc4cccc(COc5ccc(Cl)cc5F)n4)CC3)n(C[C@@H]3CCO3)c2c1 [crystal form K, (S)-2-((4-((6-((4-chloro-2-fluorophenoxy)methyl)pyridin-2-yl)oxy)piperidin-1-yl)methyl)-1-(oxetan-2-ylmethyl)-1H-benzo[d]imidazole-6-carboxylic acid tromethamine salt (1:1)]
